Experimental data reported in the supplement of paper PMC10307832.

Experiments:
Test in all cases: relative viability (nuclei count vs DMSO), 5 days (fraction); higher = more cells survive
Palbociclib + Pemetrexed = compound: CC(=O)c1c(C)c2cnc(Nc3ccc(N4CCNCC4)cn3)nc2n(C2CCCC2)c1=O [Palbociclib] + Nc1nc2[nH]cc(CCc3ccc(C(=O)N[C@@H](CCC(=O)O)C(=O)O)cc3)c2c(=O)[nH]1 [Pemetrexed] (partner 0.2 µM)
Outline: (§1)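 Relative viability equals treated-well nuclei counts divided by vehicle-well nuclei counts. Counts came from 4× images of lung cancer cell lines grown in 1536-well plates for 5 days after pin-tool dosing on the day after seeding. Dosing used one drug alone or a fixed anchor-drug dose plus five library-drug doses (not always all listed) in √10 steps, and values are medians of duplicate plates.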

Palbociclib + Foretinib = compound: CC(=O)c1c(C)c2cnc(Nc3ccc(N4CCNCC4)cn3)nc2n(C2CCCC2)c1=O [Palbociclib] + COc1cc2c(Oc3ccc(NC(=O)C4(C(=O)Nc5ccc(F)cc5)CC4)cc3F)ccnc2cc1OCCCN1CCOCC1 [Foretinib] (partner 0.25 µM)
Outline: as §1

Palbociclib + Vorinostat = compound: CC(=O)c1c(C)c2cnc(Nc3ccc(N4CCNCC4)cn3)nc2n(C2CCCC2)c1=O [Palbociclib] + O=C(CCCCCCC(=O)Nc1ccccc1)NO [Vorinostat] (partner 1 µM)
Outline: as §1

Row | Cell Line | relative viability (Palbociclib + Pemetrexed; first compound 0.01 µM) | relative viability (Palbociclib + Pemetrexed; first compound 0.03162 µM) | relative viability (Palbociclib + Pemetrexed; first compound 0.1 µM) | relative viability (Palbociclib + Pemetrexed; first compound 0.3162 µM) | relative viability (Palbociclib + Pemetrexed; first compound 1 µM) | relative viability (Palbociclib + Foretinib; first compound 0.01 µM) | relative viability (Palbociclib + Foretinib; first compound 0.03162 µM) | relative viability (Palbociclib + Foretinib; first compound 0.1 µM) | relative viability (Palbociclib + Foretinib; first compound 0.3162 µM) | relative viability (Palbociclib + Foretinib; first compound 1 µM) | relative viability (Palbociclib + Vorinostat; first compound 0.01 µM) | relative viability (Palbociclib + Vorinostat; first compound 0.03162 µM) | relative viability (Palbociclib + Vorinostat; first compound 0.1 µM) | relative viability (Palbociclib + Vorinostat; first compound 0.3162 µM) | relative viability (Palbociclib + Vorinostat; first compound 1 µM)
1 | RERF-LC-KJ | 0.437 | 0.45 | 0.432 | 0.486 | 0.469 | 0.868 | 0.761 | 0.88 | 0.861 | 0.898 | 0.724 | 0.613 | 0.66 | 0.747 | 0.682
2 | A549 |  |  |  |  |  | 0.925 | 0.831 | 0.754 | 0.635 | 0.43 |  |  |  |  | 
3 | NCI-H1437 | 0.33 | 0.338 | 0.339 | 0.33 | 0.269 | 1.27 | 1.16 | 0.992 | 0.991 | 0.783 | 0.873 | 0.74 | 0.651 | 0.493 | 0.35
4 | SK-LU-1 | 1.02 | 0.96 | 0.836 | 0.753 | 0.556 | 0.825 | 0.74 | 0.571 | 0.552 | 0.361 | 0.805 | 0.748 | 0.617 | 0.529 | 0.436
5 | NCI-H1793 | 0.975 | 0.653 | 0.676 | 0.617 | 0.339 | 0.689 |  | 0.713 | 0.617 | 0.355 | 0.824 | 0.564 | 0.531 | 0.664 | 0.287
6 | ChaGo-K-1 | 0.259 |  | 0.261 | 0.257 | 0.26 | 0.928 | 0.797 | 1.1 | 0.959 | 0.977 | 0.726 |  | 0.696 | 0.721 | 0.746
7 | A-427 | 0.96 | 0.879 | 0.779 | 0.633 | 0.497 | 0.944 | 1.01 | 0.993 | 0.729 | 0.607 | 0.855 | 0.789 | 0.711 | 0.652 | 0.527
8 | NCI-H358 | 0.167 | 0.163 | 0.166 | 0.186 | 0.135 | 0.718 | 0.545 | 0.523 | 0.412 | 0.226 | 0.73 | 0.475 | 0.413 | 0.449 | 0.199
9 | HOP-62 | 0.281 |  | 0.306 | 0.252 | 0.269 | 0.881 |  | 1.02 | 0.958 | 0.735 | 0.499 |  | 0.423 | 0.482 | 0.395
10 | NCI-H322M | 0.604 | 0.499 | 0.651 | 0.573 | 0.362 | 0.977 | 0.776 | 0.616 | 0.641 | 0.414 | 0.837 | 0.784 | 0.602 | 0.55 | 0.454
11 | NCI-H441 | 0.276 | 0.266 | 0.258 | 0.236 | 0.257 | 0.75 | 0.965 | 0.571 | 0.701 | 0.373 | 0.817 | 0.708 | 0.589 | 0.569 | 0.405
12 | H3255 | 0.602 | 0.59 | 0.576 | 0.488 | 0.397 | 0.879 | 0.898 | 0.693 | 0.641 | 0.57 | 0.907 | 0.688 | 0.687 | 0.68 | 0.549
